Assay results from the NIST ThermoML archive (doi:10.1016/j.fluid.2011.08.020).

Conditions: Liquid, Variable volume cell

CCCCCCCCCCCCCCCC [hexadecane]
Conditions	mass density [kg/m3]
323.65 K, 14900 kPa	758
323.65 K, 27900 kPa	769
323.65 K, 41500 kPa	779
323.65 K, 55500 kPa	787
323.65 K, 69400 kPa	792
323.65 K, 81300 kPa	799
323.65 K, 109700 kPa	807
422.85 K, 14100 kPa	700
422.85 K, 27900 kPa	713
422.85 K, 41200 kPa	724
422.85 K, 55500 kPa	734
422.85 K, 69800 kPa	743
422.85 K, 82800 kPa	750
422.85 K, 108800 kPa	765
422.85 K, 136900 kPa	778
422.85 K, 170700 kPa	792
422.85 K, 204300 kPa	804
422.85 K, 236500 kPa	815
422.85 K, 262300 kPa	823
522.55 K, 15100 kPa	643
522.55 K, 27100 kPa	660
522.55 K, 42000 kPa	675
522.55 K, 55400 kPa	687
522.55 K, 69100 kPa	698
522.55 K, 82100 kPa	707
522.55 K, 107900 kPa	723
522.55 K, 135800 kPa	738
522.55 K, 170100 kPa	755
522.55 K, 203300 kPa	769
522.55 K, 235800 kPa	782
522.55 K, 255000 kPa	788

CCCCCCCCCCCCCCCCCC [octadecane]
Conditions	mass density [kg/m3]
323.65 K, 7000 kPa	764
323.65 K, 14400 kPa	769
323.65 K, 28300 kPa	778
323.65 K, 42200 kPa	788
323.65 K, 55600 kPa	797
323.65 K, 68900 kPa	800
422.85 K, 7700 kPa	702
422.85 K, 15100 kPa	711
422.85 K, 29400 kPa	724
422.85 K, 42500 kPa	732
422.85 K, 56100 kPa	741
422.85 K, 73200 kPa	752
422.85 K, 84500 kPa	761
422.85 K, 110000 kPa	774
422.85 K, 138500 kPa	787
422.85 K, 171700 kPa	801
422.85 K, 206100 kPa	813
422.85 K, 235500 kPa	823
422.85 K, 255900 kPa	829
522.55 K, 15300 kPa	651
522.55 K, 29400 kPa	668
522.55 K, 43200 kPa	681
522.55 K, 56400 kPa	692
522.55 K, 70800 kPa	703
522.55 K, 84400 kPa	712
522.55 K, 110000 kPa	727
522.55 K, 137800 kPa	742
522.55 K, 170400 kPa	757
522.55 K, 205300 kPa	771
522.55 K, 235700 kPa	782
522.55 K, 257000 kPa	790

CCCCCCCCCCCCCCCCCCCC [eicosane]
Conditions	mass density [kg/m3]
323.65 K, 7300 kPa	771
323.65 K, 14900 kPa	777
323.65 K, 21400 kPa	784
323.65 K, 27400 kPa	787
323.65 K, 34200 kPa	789
422.85 K, 7400 kPa	711
422.85 K, 14300 kPa	719
422.85 K, 20600 kPa	723
422.85 K, 27900 kPa	730
422.85 K, 34600 kPa	735
422.85 K, 54200 kPa	748
422.85 K, 81600 kPa	765
422.85 K, 109200 kPa	781
422.85 K, 136100 kPa	792
422.85 K, 169500 kPa	806
422.85 K, 203100 kPa	818
422.85 K, 235500 kPa	829
422.85 K, 260000 kPa	837
522.55 K, 16400 kPa	661
522.55 K, 28300 kPa	676
522.55 K, 41900 kPa	691
522.55 K, 55500 kPa	706
522.55 K, 69600 kPa	719
522.55 K, 82500 kPa	727
522.55 K, 109200 kPa	744
522.55 K, 138200 kPa	763
522.55 K, 173100 kPa	777
522.55 K, 204700 kPa	791
522.55 K, 239800 kPa	805
522.55 K, 258000 kPa	810
